Measurements: patent US12077503B2, “Substituted cyclic amides and their use as herbicides” (FMC CORPORATION, priority 2015, dated 2024)

Key:
Assay type in all cases: in vivo
[1] = test system: Kochia (Kochia scoparia); assay: Test A preemergence
Method in brief: (§1)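 Greenhouse, ~10 d after spray; visual injury vs untreated controls, 0 = no effect, 100 = complete control. Preemergence: directed soil spray over planted seeds. Postemergence: plants 2–10 cm, 1–2 leaf stage. Loam/sand blend. Compound in non-phytotoxic solvent with surfactant.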

[2] = test system: barnyardgrass (Echinochloa crus-galli); assay: Test A preemergence
Method in brief: as §1

[3] = test system: giant foxtail (Setaria faberii); assay: Test A preemergence
Method in brief: as §1

[4] = test system: pigweed (Amaranthus retroflexus); assay: Test A preemergence
[5] = test system: ragweed (common ragweed, Ambrosia elatior); assay: Test A preemergence
Method in brief: as §1

[6] = test system: ryegrass, Italian (Italian ryegrass, Lolium multiflorum); assay: Test A preemergence
Method in brief: as §1

[7] = test system: Galium (catchweed bedstraw, Galium aparine); assay: Test A postemergence; details: postemergence, 0 to 100 scale (0 no effect, 100 complete control)
Method in brief: as §1

[8] = test system: Kochia (Kochia scoparia); assay: Test A postemergence; details: postemergence, 0 to 100 scale (0 no effect, 100 complete control)
Method in brief: as §1

[9] = test system: barnyardgrass (Echinochloa crus-galli); assay: Test A postemergence
Method in brief: as §1

[10] = test system: blackgrass (Alopecurus myosuroides); assay: Test A postemergence
Method in brief: as §1

[11] = test system: corn (Zea mays); assay: Test A postemergence
Method in brief: as §1

[12] = test system: giant foxtail (Setaria faberii); assay: Test A postemergence; details: postemergence, 0 to 100 scale (0 no effect, 100 complete control)
Method in brief: as §1

[13] = test system: pigweed (Amaranthus retroflexus); assay: Test A postemergence; details: postemergence, 0 to 100 scale (0 no effect, 100 complete control)
Method in brief: as §1

[14] = test system: ragweed (common ragweed, Ambrosia elatior); assay: Test A postemergence; details: postemergence, 0 to 100 scale (0 no effect, 100 complete control)
Method in brief: as §1

[15] = test system: ryegrass, Italian (Italian ryegrass, Lolium multiflorum); assay: Test A postemergence; details: postemergence, 0 to 100 scale (0 no effect, 100 complete control)
Method in brief: as §1

[16] = test system: wheat (Triticum aestivum); assay: Test A postemergence; details: postemergence, 0 to 100 scale (0 no effect, 100 complete control)
Method in brief: as §1

[17] = test system: barnyardgrass (Echinochloa crus-galli); assay: Test B flooded paddy test; details: Flood, 250 g ai/ha; 0 to 100 scale where 0 is no effect and 100 is complete control; 13 to 15 d
Method in brief: (§2)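 2-leaf plants; pots flooded 3 cm over soil; cpd added to paddy water; depth held; greenhouse 13–15 d; visual rating vs controls, 0 = no effect, 100 = complete control.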

[18] = test system: ducksalad (Heteranthera limosa); assay: Test B flooded paddy test; details: Flood, 250 g ai/ha; 0 to 100 scale where 0 is no effect and 100 is complete control; 13 to 15 d
Method in brief: as §2

[19] = test system: rice (Oryra sativa); assay: Test B flooded paddy test; details: Flood, 250 g ai/ha; 0 to 100 scale where 0 is no effect and 100 is complete control; 13 to 15 d
Method in brief: as §2

[20] = test system: sedge, umbrella (small-flower umbrella sedge, Cyperus difformis); assay: Test B flooded paddy test; details: Flood, 250 g ai/ha; 0 to 100 scale where 0 is no effect and 100 is complete control; 13 to 15 d
Method in brief: as §2

[21] = test system: pigweed (Amaranthus retroflexus); assay: Test C preemergence; details: for Plant response rating (scale of 0 to 100), Pigweed: 31 g ai/ha, 0 is no effect, 100 is complete control; for Plant response rating, Pigweed: scale 0 to 100, 0 no effect, 100 complete control
Method in brief: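 Visual rating, 0–100 scale (0 = no effect, 100 = complete control) versus controls, 13–15 d after treatment. Compounds in non-phytotoxic solvent plus surfactant; applied preemergence to seeds in loam/sand soil or postemergence to 1- to 4-leaf plants (2–18 cm) in peat/vermiculite medium; greenhouse-held.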

[22] = 125 g ai/ha, Preemergence, visual injury after approximately 10 d, 0 to 100 scale where 0 is no effect and 100 is complete control
[23] = 500 g ai/ha, preemergence, 0 to 100 scale, 0 = no effect, 100 = complete control
[24] = 125 g ai/ha, visual rating after approx. 10 d
[25] = 500 g ai/ha, visual injury, approx. 10 d
[26] = 125 g ai/ha, postemergence, visual rating after approx. 10 d, 0 to 100 scale (0 no effect, 100 complete control)
[27] = Postemergence, 500 g ai/ha, 0 to 100 scale where 0 is no effect and 100 is complete control
[28] = 500 g ai/ha, postemergence, visual injury, 0 to 100 scale (0 no effect, 100 complete control), approx. 10 d

Compound | Plant response rating, Kochia [1, 22] | Plant response rating, Kochia [1, 23] | Plant response rating, Barnyardgrass [2, 22] | Plant response rating, Barnyardgrass [2, 23] | Plant response rating, Foxtail, Giant [3, 22] | Plant response rating, Foxtail, Giant [3, 23] | Plant response rating, Pigweed [4, 22] | Plant response rating, Pigweed [4, 23] | Plant response rating, Ragweed [5, 22] | Plant response rating, Ragweed [5, 23] | Plant response rating, Ryegrass, Italian [6, 22] | Plant response rating, Ryegrass, Italian [6, 23] | Plant response rating, Galium [7, 24] | Plant response rating, Galium [7, 25] | Plant response rating, Kochia [8, 24] | Plant response rating, Kochia [8, 25] | Plant response rating, Barnyardgrass [9, 26] | Plant response rating, Blackgrass [10, 26] | Plant response rating, Corn [11, 26] | Plant response rating, Foxtail, Giant [12, 24] | also measured
CN1CC(c2cccc(C(F)(F)F)c2)C(C(=O)Nc2cccc(F)c2F)C1=O (stereo not shown) [Compound 636] | 50 | 70 | 90 | 90 | 90 | 90 | 40 | 80 | 20 | 70 | 90 | 90 | 50 | 50 | 50 | 60 | 90 | 60 | 70 | 90 | Plant response rating, Barnyardgrass [9, 27]: 90; Plant response rating, Blackgrass [10, 27]: 60; Plant response rating, Corn [11, 27]: 80; Plant response rating, Foxtail, Giant [12, 25]: 90; Plant response rating, Pigweed [13, 24]: 30; Plant response rating, Pigweed [13, 25]: 50; Plant response rating, Ragweed [14, 24]: 0; Plant response rating, Ragweed [14, 25]: 30; Plant response rating, Ryegrass, Italian [15, 24]: 50; Plant response rating, Ryegrass, Italian [15, 25]: 70; Plant response rating, Wheat [16, 24]: 60; Plant response rating, Wheat [16, 25]: 60; Plant response rating, Barnyardgrass [17]: 70; Plant response rating, Ducksalad [18]: 100; Plant response rating, Rice [19]: 0; Plant response rating, Sedge, Umbrella [20]: 0; Plant response rating (scale of 0 to 100), Pigweed [21]: 60; Plant response rating, Pigweed ([21]; 62 g ai/ha): 70; Plant response rating, Pigweed ([21]; 125 g ai/ha): 80; Plant response rating, Pigweed ([21]; 250 g ai/ha): 85
CN1CC(c2cccc(C(F)(F)F)c2)C(C(=O)Nc2ccccc2S(C)(=O)=O)C1=O (stereo not shown) [Compound 637] | 40 | 60 | 90 | 90 | 90 | 100 | 80 | 100 | 40 | 70 | 50 | 90 | 50 | 50 | 0 | 30 | 90 | 50 | 70 | 90 | Plant response rating, Barnyardgrass [9, 27]: 90; Plant response rating, Blackgrass [10, 27]: 60; Plant response rating, Corn [11, 27]: 70; Plant response rating, Foxtail, Giant [12, 25]: 90; Plant response rating, Pigweed [13, 24]: 50; Plant response rating, Pigweed [13, 25]: 60; Plant response rating, Ragweed [14, 24]: 0; Plant response rating, Ragweed [14, 25]: 20; Plant response rating, Ryegrass, Italian [15, 24]: 20; Plant response rating, Ryegrass, Italian [15, 25]: 20; Plant response rating, Wheat [16, 24]: 70; Plant response rating, Wheat [16, 25]: 70; Plant response rating, Barnyardgrass [17]: 80; Plant response rating, Ducksalad [18]: 100; Plant response rating, Rice [19]: 10; Plant response rating, Sedge, Umbrella [20]: 0; Plant response rating (scale of 0 to 100), Pigweed [21]: 70; Plant response rating, Pigweed ([21]; 62 g ai/ha): 80; Plant response rating, Pigweed ([21]; 125 g ai/ha): 85; Plant response rating, Pigweed ([21]; 250 g ai/ha): 85
Cc1ccc(C2CN(C)C(=O)C2C(=O)Nc2cccc(F)c2F)cc1 (stereo not shown) [Compound 662] | 70 | 90 | 90 | 90 | 100 | 100 | 70 | 80 | 80 | 80 | 40 | 90 | 60 | 70 | 70 | 70 | 90 | 60 | 80 | 90 | Plant response rating, Barnyardgrass [9, 28]: 90; Plant response rating, Blackgrass [10, 28]: 80; Plant response rating, Corn [11, 28]: 90; Plant response rating, Foxtail, Giant [12, 25]: 90; Plant response rating, Pigweed [13, 24]: 20; Plant response rating, Pigweed [13, 25]: 50; Plant response rating, Ragweed [14, 24]: 20; Plant response rating, Ragweed [14, 25]: 60; Plant response rating, Ryegrass, Italian [15, 24]: 40; Plant response rating, Ryegrass, Italian [15, 25]: 70; Plant response rating, Wheat [16, 24]: 80; Plant response rating, Wheat [16, 25]: 80; Plant response rating, Barnyardgrass [17]: 80; Plant response rating, Ducksalad [18]: 95; Plant response rating, Rice [19]: 20; Plant response rating, Sedge, Umbrella [20]: 0; Plant response rating (scale of 0 to 100), Pigweed [21]: 70; Plant response rating, Pigweed ([21]; 62 g ai/ha): 60; Plant response rating, Pigweed ([21]; 125 g ai/ha): 75; Plant response rating, Pigweed ([21]; 250 g ai/ha): 80
Cc1cccc(C2CN(C)C(=O)C2C(=O)Nc2cccc(F)c2F)c1 (stereo not shown) [Compound 667] | 40 | 70 | 90 | 90 | 90 | 100 | 20 | 50 | 60 | 70 | 80 | 90 | 50 | 50 | 50 | 60 | 90 | 60 | 70 | 90 | Plant response rating, Barnyardgrass [9, 28]: 90; Plant response rating, Blackgrass [10, 28]: 70; Plant response rating, Corn [11, 28]: 80; Plant response rating, Foxtail, Giant [12, 25]: 90; Plant response rating, Pigweed [13, 24]: 0; Plant response rating, Pigweed [13, 25]: 0; Plant response rating, Ragweed [14, 24]: 0; Plant response rating, Ragweed [14, 25]: 50; Plant response rating, Ryegrass, Italian [15, 24]: 60; Plant response rating, Ryegrass, Italian [15, 25]: 80; Plant response rating, Wheat [16, 24]: 40; Plant response rating, Wheat [16, 25]: 70; Plant response rating, Barnyardgrass [17]: 75; Plant response rating, Ducksalad [18]: 90; Plant response rating, Rice [19]: 10; Plant response rating, Sedge, Umbrella [20]: 0; Plant response rating (scale of 0 to 100), Pigweed [21]: 40; Plant response rating, Pigweed ([21]; 62 g ai/ha): 50; Plant response rating, Pigweed ([21]; 125 g ai/ha): 50; Plant response rating, Pigweed ([21]; 250 g ai/ha): 70
